Experimental data from PubChem BioAssay AID330 (DTP/NCI, 2004).
Several values for one entry are separate records, joined by “and”; a condition that tells them apart may be missing. Equal entries are not always repeated. Toxic doses and inconclusive results are not listed.

Test system: P388 leukemia ip, CD2F1 mice, survival T/C
Assay: NCI In Vivo Anticancer Drug Screen. Data for tumor model P388 Leukemia (intraperitoneal) in CD2F1 (CDF1) mice
Settings: endpoint: median survival time, higher = longer survival
Procedure, shortened: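 Mice carrying the transplanted tumor received test compound or vehicle. Survival was recorded in each group, and the value is the treated-group measurement divided by that of the vehicle-treated control group.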

[1] = dose: 50.0 mg/kg/injection, schedule: Q01DX009 (ip), vehicle: saline
[2] = dose: 100.0 mg/kg/injection, schedule: Q01DX009 (ip), vehicle: saline
[3] = dose: 50.0 mg/kg/injection, schedule: Q01DX005 (ip), vehicle: saline
[4] = dose: 100.0 mg/kg/injection, schedule: Q01DX005 (ip), vehicle: saline
[5] = dose: 100.0 mg/kg/injection, schedule: Q04DX003 (ip), vehicle: saline with Tween-80
[6] = dose: 200.0 mg/kg/injection, schedule: Q04DX003 (ip), vehicle: saline with Tween-80
[7] = dose: 50.0 mg/kg/injection, schedule: Q01DX005 (ip), vehicle: saline with Tween-80
[8] = dose: 100.0 mg/kg/injection, schedule: Q01DX005 (ip), vehicle: saline with Tween-80
[9] = dose: 60.0 mg/kg/injection, schedule: Q01DX005 (ip), vehicle: saline with Tween-80
[10] = dose: 120.0 mg/kg/injection, schedule: Q01DX005 (ip), vehicle: saline with Tween-80
[11] = dose: 240.0 mg/kg/injection, schedule: Q01DX005 (ip), vehicle: saline with Tween-80
[12] = dose: 6.25 mg/kg/injection, schedule: Q01DX009 (ip), vehicle: Klucel (hydroxypropylcellulose) (HPC)
[13] = dose: 50.0 mg/kg/injection, schedule: Q01DX009 (ip), vehicle: saline with Tween-80
[14] = dose: 100.0 mg/kg/injection, schedule: Q01DX009 (ip), vehicle: saline with Tween-80
[15] = dose: 50.0 mg/kg/injection, schedule: Q01DX005 (ip), vehicle: Klucel (hydroxypropylcellulose) (HPC)
[16] = dose: 100.0 mg/kg/injection, schedule: Q01DX005 (ip), vehicle: Klucel (hydroxypropylcellulose) (HPC)
[17] = dose: 200.0 mg/kg/injection, schedule: Q01DX005 (ip), vehicle: Klucel (hydroxypropylcellulose) (HPC)
[18] = dose: 12.5 mg/kg/injection, schedule: Q01DX009 (ip), vehicle: saline with Tween-80
[19] = dose: 25.0 mg/kg/injection, schedule: Q01DX009 (ip), vehicle: saline with Tween-80
[20] = dose: 25.0 mg/kg/injection, schedule: Q01DX005 (ip), vehicle: saline with Tween-80
[21] = dose: 200.0 mg/kg/injection, schedule: Q01DX009 (ip), vehicle: saline

O.O=[N+]([O-])O.[NH2-].[NH2-].[Pt+2]
T/C (dose: 0.04 mg/kg/injection, schedule: Q01DX009 (ip), vehicle: other): 118 % of control
T/C (dose: 0.16 mg/kg/injection, schedule: Q01DX009 (ip), vehicle: other): 91 % of control
T/C (dose: 0.31 mg/kg/injection, schedule: Q01DX009 (ip), vehicle: other): 150 % of control

COc1ccc2ccccc2c1C1=CC(c2ccccc2)C(c2cc(C)n(-c3ccccc3)n2)C(=O)N1 (stereo unspecified)
T/C (dose: 100.0 mg/kg/injection, schedule: Q04DX002 (ip), vehicle: saline with Tween-80): 101 % of control
T/C (dose: 200.0 mg/kg/injection, schedule: Q04DX002 (ip), vehicle: saline with Tween-80): 106 % of control

Cc1cc2nc(N)sc2cc1C
T/C (dose: 12.5 mg/kg/injection, schedule: Q01DX009 (ip), vehicle: saline): 98 % of control
T/C (dose: 25.0 mg/kg/injection, schedule: Q01DX009 (ip), vehicle: saline): 100 % of control
T/C [1]: 102 % of control
T/C [2]: 102 % of control

CS(=O)(=O)OCC(O)C(O)CI (stereo unspecified)
T/C (dose: 25.0 mg/kg/injection, schedule: Q01DX005 (ip), vehicle: saline): 109 % of control
T/C [3]: 104 % of control
T/C [4]: 111 % of control

CCCCCCCCCCCCN(C)S(=O)(=O)c1ccc(Cl)c(N)c1
T/C (dose: 50.0 mg/kg/injection, schedule: Q04DX003 (ip), vehicle: saline with Tween-80): 95 % of control
T/C [5]: 100 % of control
T/C [6]: 95 % of control

CN(C)NP(=S)(NN(C)C)Oc1ccccc1
T/C [7]: 117 % of control
T/C [8]: 99 % of control

CN(C)c1ccc(/C=C(\NC(=O)c2ccccc2)c2nc3ccccc3s2)cc1
T/C [9]: 105 % of control
T/C [10]: 116 % of control
T/C (dose: 200.0 mg/kg/injection, schedule: Q01DX005 (ip), vehicle: saline with Tween-80): 106 % of control

COc1cc2cc3cc(-c4ccc(Cl)cc4)c(N4CCOCC4)nc3nc2cc1OC
T/C (dose: 15.0 mg/kg/injection, schedule: Q01DX005 (ip), vehicle: saline with Tween-80): 92 % of control
T/C (dose: 30.0 mg/kg/injection, schedule: Q01DX005 (ip), vehicle: saline with Tween-80): 93 % of control
T/C [10]: 91 % of control
T/C [11]: 93 % of control

CC(=O)C1C(=O)C=C(C)OC1=O.CC(=O)C1C(=O)C=C(C)OC1=O.[Hg] (stereo unspecified)
T/C (dose: 1.56 mg/kg/injection, schedule: Q01DX009 (ip), vehicle: Klucel (hydroxypropylcellulose) (HPC)): 88 % of control
T/C (dose: 3.12 mg/kg/injection, schedule: Q01DX009 (ip), vehicle: Klucel (hydroxypropylcellulose) (HPC)): 101 % of control
T/C [12]: 91 % of control and 93 % of control

Cc1ccc2ccc(N(C)C)cc2n1
T/C [13]: 100 % of control
T/C [14]: 107 % of control

O=c1[nH]ncc(=S)[nH]1
T/C (dose: 25.0 mg/kg/injection, schedule: Q01DX009 (ip), vehicle: suspension in saline): 90 % of control
T/C (dose: 50.0 mg/kg/injection, schedule: Q01DX009 (ip), vehicle: suspension in saline): 103 % of control
T/C (dose: 100.0 mg/kg/injection, schedule: Q01DX009 (ip), vehicle: suspension in saline): 87 % of control

O=C(NN(Cn1c(=S)sc2ccccc21)Cn1c(=S)sc2ccccc21)c1ccccc1O
T/C [15]: 89 % of control
T/C [16]: 91 % of control
T/C [17]: 98 % of control

O=[N+]([O-])c1cnc2ccccn12
T/C [18]: 100 % of control
T/C [19]: 93 % of control
T/C [13]: 94 % of control
T/C [14]: 95 % of control

NC(N)=N/N=C/c1nccc2ccccc12
T/C [20]: 99 % of control and 103 % of control
T/C [7]: 98 % of control and 99 % of control and 102 % of control
T/C [8]: 105 % of control and 120 % of control

CCN(CC)CCCC(c1ccccc1)c1ccccc1
T/C (dose: 12.5 mg/kg/injection, schedule: Q01DX005 (ip), vehicle: saline with Tween-80): 99 % of control
T/C [20]: 94 % of control
T/C [7]: 99 % of control and 110 % of control

O=c1oc(-c2ccc(Cl)cc2[N+](=O)[O-])nc2ccccc12
T/C [1]: 108 % of control
T/C [2]: 104 % of control
T/C [21]: 100 % of control

NC(N)=NCCC(Cl)C(=O)O (stereo unspecified)
T/C [3]: 101 % of control
T/C [4]: 102 % of control
T/C (dose: 200.0 mg/kg/injection, schedule: Q01DX005 (ip), vehicle: saline): 97 % of control

FC(F)(F)C1(C(F)(F)F)O[P+](c2ccccc2)(c2ccccc2)c2ccccc21
T/C [15]: 100 % of control
T/C [16]: 110 % of control
T/C [17]: 102 % of control

C=CCOc1cc2c(cc1C/C=C\c1ccc(OC)cc1)OCO2
T/C [9]: 102 % of control
T/C [10]: 104 % of control
T/C [11]: 101 % of control

O=C1CCCC1(c1ccccc1)c1ccccc1
T/C [14]: 90 % of control
T/C (dose: 200.0 mg/kg/injection, schedule: Q01DX009 (ip), vehicle: saline with Tween-80): 95 % of control
T/C (dose: 400.0 mg/kg/injection, schedule: Q01DX009 (ip), vehicle: saline with Tween-80): 95 % of control

Cc1cc2ncn(C(=O)Nc3ccccc3)c2cc1C
T/C [5]: 100 % of control
T/C [6]: 90 % of control
T/C (dose: 400.0 mg/kg/injection, schedule: Q04DX003 (ip), vehicle: saline with Tween-80): 90 % of control

C=C1CC(O)C2C(=C)C(=O)OC2C2C(C)C(=O)CC12 (stereo unspecified)
T/C [12]: 112 % of control
T/C (dose: 12.5 mg/kg/injection, schedule: Q01DX009 (ip), vehicle: Klucel (hydroxypropylcellulose) (HPC)): 107 % of control
T/C (dose: 25.0 mg/kg/injection, schedule: Q01DX009 (ip), vehicle: Klucel (hydroxypropylcellulose) (HPC)): 115 % of control
T/C (dose: 50.0 mg/kg/injection, schedule: Q01DX009 (ip), vehicle: Klucel (hydroxypropylcellulose) (HPC)): 116 % of control

O=C(NC1COB(c2ccccc2)OC1c1ccc([N+](=O)[O-])cc1)C(Cl)Cl (stereo unspecified)
T/C (dose: 60.0 mg/kg/injection, schedule: Q01DX005 (ip), vehicle: Klucel (hydroxypropylcellulose) (HPC)): 97 % of control
T/C (dose: 120.0 mg/kg/injection, schedule: Q01DX005 (ip), vehicle: Klucel (hydroxypropylcellulose) (HPC)): 97 % of control
T/C (dose: 240.0 mg/kg/injection, schedule: Q01DX005 (ip), vehicle: Klucel (hydroxypropylcellulose) (HPC)): 99 % of control

C=C1C(=O)OC2C1C(OC(=O)/C(C)=C\C)CC(C)=C1C(=O)C3OC3(C)C12O (stereo unspecified)
T/C (dose: 12.5 mg/kg/injection, schedule: Q01DX005 (ip), vehicle: saline + alcohol): 115 % of control
T/C (dose: 25.0 mg/kg/injection, schedule: Q01DX005 (ip), vehicle: saline + alcohol): 116 % of control
T/C (dose: 50.0 mg/kg/injection, schedule: Q01DX005 (ip), vehicle: saline + alcohol): 115 % of control

[O]=[Ge]=[O]
T/C [1]: 111 % of control
T/C [2]: 104 % of control
T/C [21]: 111 % of control

CCOC(=O)CNc1c2ccc(Cl)cc2nc2ccc(OC)cc12
T/C (dose: 6.25 mg/kg/injection, schedule: Q01DX009 (ip), vehicle: saline with Tween-80): 97 % of control
T/C [18]: 104 % of control
T/C [19]: 111 % of control
T/C [13]: 108 % of control
T/C [14]: 104 % of control
